Consider one molecule from US20120315308A1, “METHODS AND DEVICES FOR CONTROLLING PARTICLE SIZE AND PARTICLE SIZE DISTRIBUTION” (priority 2010, published 2012).

The procedure of this data set: A submicron dispersion of naproxen was prepared using the enhanced initial dispersion followed by a secondary high shear mixing process. The following equipment was used for the experiment:
(1) An Ivek Digispense 3009 controller with an AP motor/base assembly and a AA pump body.
(2) A Micronoson Ultrasonic Cell Distruptor, XL 100 watt ultrasonic controller and a Misonix 22.5 kHz ultrasonic transducer horn with a coaxillal center feed.
(3) Microfluidizer—Microfluidics M-110EH-25 high shear processor with a 75 micron F-20Y interaction chamber.
(4) Horiba LA-950 Laser Diffraction Particle Size Analyzer.
The Ivek Digispense pump speed was calibrated to 20 mL/min.
The end of the ultrasonic horn, also referred to as an ultrasonic probe, was suspended in air, the power to the Ivek pump and the ultrasonic probe was turned on. Ultrasonic power was set to 20 watts. The height of the ultrasonic probe dispense tubing was adjusted until the feed liquid was dispersed as small droplets, thereby creating a fine spray. The tubing was fixed at this height, as above and below this height, dispensed liquid simply drips from the probe.
The tip of the ultrasonic transducer horn was secured just above the check valve in the feed reservoir. The antisolvent was a 0.5% Triton X-100 in dionized water, and 190 mL of the antisolvent was added to the inlet reservoir of the Microfluidizer. Naproxen has a tendency to agglomerate, therefore, nonionic Triton X-100 surfactant was used as the antisolvent.
DMSO was used as the solvent and it contained 13.75 g naproxen per 100 mL solvent. An ice bath was used to chill the sample to avoid over heating with multiple passes.
The microfluidizer pressure was set to 24,000 psi, using the antisolvent. […] The outlet from the cooling coil of the microfluidizer was placed in the inlet reservoir to allow for recycling of the process. The Ivek Pump was set for 20 mL/min.
With the Microfluidizer running at 24,000 psi in a recirculation mode the Pump and Ulrasonic Probe were simutaneously turned on for 30 seconds and then immediately turned off. A single pass sample was collected for particle size analyzsis. This sample contained 1.375 grams of naproxen in the mixed solution of DMSO & 0.5% triton X-100 DI water. The Microfluidizer continued to run for an additional 150 seconds for a total of 180 seconds. After six passes, a sample was collected to evaulate particle size.
The graph presented in FIG. 3 is a plot of naproxen particle diameter (x axis) vs. frequency of occurrence of the particle diameter (y axis). Table 6 provides the mean and median particle size for each run.

[1] abbreviates: no ultrasonic step, 1 pass through Microfluidizer at 24,000 psi.
Setting [2] is: no ultrasonic step, 6 passes through Microfluidizer at 24,000 psi.
The mark [3] stands for this setting: with ultrasonic initial mixing, 1 pass through Microfluidizer at 24,000 psi, DMSO / 0.5% Triton X-100 in water.
Setting [4] is: with ultrasonic initial mixing, 6 passes through Microfluidizer at 24,000 psi, DMSO / 0.5% Triton X-100 in water.

“And” between values parts separate entries of the source, which are not always exact repeats. Equal values may be shown once. Read-outs that look alike come from different tables or passages of the source.

In the case of `COc1ccc2cc([C@H](C)C(=O)O)ccc2c1` [naproxen], the “Mean Particle Size” value is 4.65 μm and 8.199 μm under setting [1]; 2.4845 μm and 2.47 μm under setting [2]; 1.021 μm and 1.257 μm under setting [3]; 0.6051 μm and 0.606 μm under setting [4]. Besides, the Median particle size under setting [1] was 4.784 μm and 8.324 μm; the Median particle size under setting [2] was 1.214 μm and 1.696 μm; the Median particle size under setting [3] was 0.3267 μm and 0.6459 μm; the Median particle size under setting [4] is 0.5067 μm and 0.4602 μm. Also, for the setting “with ultrasonic initial mixing, regardless of how many passes were employed”, the “median naproxen particle size (diameter)” value was “less than 1 μm”.
